Experimental data: article PMC11901705 (Molecules, 2025)

What was measured:
[1] = Stability of vancomycin in extracted human plasma samples; type: physicochemical; settings: for Mean back calculated Vancomycin Concentrations: extracted human plasma, HPLC-UV, mean of n = 5
Procedure: (§1) The chromatographic separation was performed using HPLC-UV (Shimadzu, Kyoto, Japan), which consisted of solvent delivery pumps (LC-20 AT), an SIL-20A autosampler, and a UV-VIS detector (SPD-10A VP). The HPLC chromatographic separation was performed using a reverse-phase Supleco Discovery® C18 column (5 μm, 250 × 4.6 mm) (Supleco Inc., Mississauga, ON, Canada) with a Discovery® C18 Supelguard™ guard column (5 μm, 20 × 4 mm) (Supleco Inc., Mississauga, ON, Canada). LabSolutions Lite® software version 5.93 (Shimadzu, Kyoto, Japan) was used for the acquisition of data and analysis integration. The mobile phase comprised phosphate buffer and ACN (90:10, v/v). A phosphate buffer with a pH of 2.8 was prepared by combining 175 mL of 0.1 M phosphoric acid with 825 mL of 0.1 M monobasic sodium monophosphate. […] The final concentration of the phosphate buffer was 0.1 M. Separation was carried out using isocratic elution. The flow rate was set to 1 mL/min. The total run time for sample elution was set to 10 min. The detector was set to a wavelength of 192 nm, with the column and autosampler operated at ambient temperature.
(§2) The mixture was vortexed for 40 s and centrifuged at 12,000 rpm for 10 min using an Eppendorf 5424 Microcentrifuge (Eppendorf, Hamburg, Germany). The resultant supernatant was then transferred to a separate HPLC vial with glass inserts. Aliquots of 30 μL was then injected into the HPLC system for analysis. The sample preparation was performed at room temperature and directly injected into the HPLC system.
(§3) The conditions for stability assessment were designed to simulate the conditions encountered during sample storage, handling, and analysis. […] Additionally, we conducted an assessment of freeze–thaw stability involving three cycles, each comprising a 24 h freezing period followed by room temperature thawing, with the cycle being repeated. Acceptability criteria included a stability ratio to reference samples falling within the range of 85% to 115% and a percentage error within 15%.

[2] = Stability of vancomycin in non-extracted human plasma samples; type: in vitro ADME; settings: for Mean back calculated Vancomycin Concentrations / % Error: non-extracted human plasma; for Mean back calculated Vancomycin Concentrations: HPLC-UV, mean of n = 5; for % Error: n = 5; for time of stability: plasma samples (non-extracted)
Procedure: as §1, §2, §3

[3] = Freeze and thaw stability of vancomycin in human plasma; type: in vitro ADME; settings: nominal 10 mg/L
Procedure: as §1
The mixture was vortexed for 40 s and centrifuged at 12,000 rpm for 10 min using an Eppendorf 5424 Microcentrifuge (Eppendorf, Hamburg, Germany). The resultant supernatant was then transferred to a separate HPLC vial with glass inserts. […]

[4] = cited from earlier work
From the text: It is also the preferred agent for managing Gram-positive bacterial infections in patients allergic to beta-lactam antimicrobials.

[5] = -80 °C, 2 weeks, nominal 10 mg/L
[6] = -80 °C, 24 hours, nominal 10 mg/L
[7] = room temperature, 24 hours, nominal 10 mg/L
[8] = -20 °C, 2 weeks, nominal 10 mg/L
[9] = -80 °C, 24 hours, nominal 70 mg/L
[10] = fridge temperature, 2 weeks, nominal 10 mg/L
[11] = fridge temperature, 3 hours, nominal 10 mg/L
[12] = fridge temperature, 3 hours, nominal 70 mg/L
[13] = fridge temperature, 24 hours, nominal 10 mg/L

CN[C@H](CC(C)C)C(=O)N[C@H]1C(=O)N[C@@H](CC(N)=O)C(=O)N[C@H]2C(=O)N[C@H]3C(=O)N[C@H](C(=O)N[C@H](C(=O)O)c4cc(O)cc(O)c4-c4cc3ccc4O)[C@H](O)c3ccc(c(Cl)c3)Oc3cc2cc(c3O[C@@H]2O[C@H](CO)[C@@H](O)[C@H](O)[C@H]2O[C@H]2C[C@](C)(N)[C@H](O)[C@H](C)O2)Oc2ccc(cc2Cl)[C@H]1O [Vancomycin]
period with satisfactory precision and accuracy ([1]; extracted human plasma samples, -80 °C storage): 2 week | degradation on storage at room temperature ([1]; extracted human plasma samples, storage for 24 h, 1 week and 2 weeks): substantial degradation | period with satisfactory precision and accuracy ([1]; extracted human plasma samples, under refrigeration): 2 week | Mean back calculated Vancomycin Concentrations [1, 5]: 8.980 mg/L | Mean back calculated Vancomycin Concentrations [1, 6]: 9.888 mg/L | Mean back calculated Vancomycin Concentrations ([1]; fridge temperature (4 °C), 2 weeks, nominal 10 mg/L): 8.307 mg/L | Mean back calculated Vancomycin Concentrations ([1]; fridge temperature (4 °C), 3 hours, nominal 10 mg/L): 8.720 mg/L | Mean back calculated Vancomycin Concentrations ([1]; fridge temperature (4 °C), 24 hours, nominal 10 mg/L): 9.740 mg/L | Mean back calculated Vancomycin Concentrations ([1]; fridge temperature (4 °C), 24 hours, nominal 70 mg/L): 76.528 mg/L | Mean back calculated Vancomycin Concentrations ([1]; room temperature, 1 week, nominal 10 mg/L): 2.491 mg/L | Mean back calculated Vancomycin Concentrations ([1]; room temperature, 2 weeks, nominal 10 mg/L): 0.722 mg/L | Mean back calculated Vancomycin Concentrations ([1]; room temperature, 2 weeks, nominal 70 mg/L): 3.647 mg/L | Mean back calculated Vancomycin Concentrations ([1]; room temperature, 3 hours, nominal 10 mg/L): 9.283 mg/L | Mean back calculated Vancomycin Concentrations [1, 7]: 6.792 mg/L | Mean back calculated Vancomycin Concentrations [2, 8]: 8.179 mg/L | % Error [2, 8]: 18.210% | % Error ([2]; -20 °C, 2 weeks, nominal 70 mg/L): 12.943% | Mean back calculated Vancomycin Concentrations [2, 5]: 8.809 mg/L | % Error [2, 5]: 11.910% | Mean back calculated Vancomycin Concentrations ([2]; -80 °C, 2 weeks, nominal 70 mg/L): 69.056 mg/L | Mean back calculated Vancomycin Concentrations [2, 6]: 9.282 mg/L | Mean back calculated Vancomycin Concentrations [2, 9]: 67.964 mg/L | % Error [2, 9]: 2.909% | Mean back calculated Vancomycin Concentrations [2, 10]: 8.404 mg/L | % Error [2, 10]: 15.960% | % Error ([2]; fridge temperature, 2 weeks, nominal 70 mg/L): 1.271% | Mean back calculated Vancomycin Concentrations [2, 11]: 9.276 mg/L | % Error [2, 11]: 7.240% | Mean back calculated Vancomycin Concentrations [2, 12]: 75.272 mg/L | % Error [2, 12]: 7.531% | Mean back calculated Vancomycin Concentrations [2, 13]: 8.860 mg/L | % Error [2, 13]: 11.400% | % Error ([2]; fridge temperature, 24 hours, nominal 70 mg/L): 0.770% | Mean back calculated Vancomycin Concentrations ([2]; room temperature, 3 hours, nominal 70 mg/L): 70.355 mg/L | Mean back calculated Vancomycin Concentrations [2, 7]: 9.543 mg/L | time of stability ([2]; -80 °C): 2 weeks | time of stability ([2]; room temperature): 24 h | Mean back calculated Vancomycin Concentrations ([3]; three freeze-thaw cycles (24 h freezing, room temperature thawing), HPLC-UV, mean of n = 5): 9.289 mg/L | % Error ([3]; three freeze-thaw cycles, n = 5): 7.110% | oral bioavailability [4]: negligible
